Experimental data from patent US12660819B2, “Herbicidal derivatives” (SYNGENTA CROP PROTECTION AG, priority 2020, dated 2026).

What was measured:
Type in all cases: in vivo
[1] = system: Amaranthus retoflexus (AMARE); experiment: Post-emergence Test (glasshouse, percentage damage to the plant); details: post-emergence spray, 1000 g/ha unless otherwise stated, evaluated after 13 days
Outline: (§1)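 Compound formulated in 50:50 acetone/water with 0.5% Tween 20 was diluted to an aqueous spray and applied at 1000 g/ha, unless otherwise stated, onto sown pots. Evaluation after 13 days gave percentage damage, banded into a 1–5 score.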

[2] = system: Echinochloa crus-galli (ECHCG); experiment: as above; details: post-emergence spray, 1000 g/ha unless otherwise stated, evaluated after 13 days
Outline: as §1

[3] = system: Ipomoea hederacea (IPOHE); experiment: as above; details: post-emergence spray, 1000 g/ha unless otherwise stated, evaluated after 13 days
Outline: (§2)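 Scored 13 days after spraying as percentage plant damage in five bands (5=81–100%, 4=61–80%, 3=41–60%, 2=21–40%, 1=0–20%). Spray at 1000 g/ha unless stated, in acetone/water 50:50 plus 0.5% Tween 20, onto sown glasshouse pots (24/16 °C, 14 h light, 65% humidity).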

Lolium perenne (LOLPE) [4] = experiment: as above; details: post-emergence spray, 1000 g/ha unless otherwise stated, evaluated after 13 days
Outline: as §1

Setaria faberi (SETFA) [5] = experiment: as above; details: post-emergence spray, 1000 g/ha unless otherwise stated, evaluated after 13 days
Outline: as §2

Solanum nigrum (SOLNI) [6] = experiment: as above; details: post-emergence spray, 1000 g/ha unless otherwise stated, evaluated after 13 days
Outline: as §1

[7] = system: Amaranthus retoflexus (AMARE); experiment: Pre-emergence Test (glasshouse, percentage damage to the plant); details: 1000 g/ha unless otherwise stated, five-point scale
Solanum nigrum (SOLNI) [8] = experiment: as above; details: 1000 g/ha unless otherwise stated, five-point scale
Setaria faberi (SETFA) [9] = experiment: as above; details: 1000 g/ha unless otherwise stated, five-point scale
Lolium perenne (LOLPE) [10] = experiment: as above; details: 1000 g/ha unless otherwise stated, five-point scale
[11] = system: Echinochloa crus-galli (ECHCG); experiment: as above; details: 1000 g/ha unless otherwise stated, five-point scale
[12] = system: Ipomoea hederacea (IPOHE); experiment: as above; details: 1000 g/ha unless otherwise stated, five-point scale

Structure (SMILES) | Post-emergence Test AMARE, percentage damage to the plant (five-point scale) [1] | Post-emergence Test ECHCG, percentage damage to the plant (five-point scale) [2] | Post-emergence Test IPOHE, percentage damage to the plant (five-point scale) [3] | Post-emergence Test LOLPE, percentage damage to the plant (five-point scale) (Lolium perenne (LOLPE) [4]) | Post-emergence Test SETFA, percentage damage to the plant (five-point scale) (Setaria faberi (SETFA) [5]) | Post-emergence Test SOLNI, percentage damage to the plant (five-point scale) (Solanum nigrum (SOLNI) [6]) | percentage damage to the plant, AMARE [7] | percentage damage to the plant, SOLNI (Solanum nigrum (SOLNI) [8]) | percentage damage to the plant, SETFA (Setaria faberi (SETFA) [9]) | percentage damage to the plant, LOLPE (Lolium perenne (LOLPE) [10]) | percentage damage to the plant, ECHCG [11] | percentage damage to the plant, IPOHE [12]
CCn1c(C)c(-c2cccc(OC(F)(F)F)c2)c(=O)c(C(=O)O)c1-c1ccc(Cl)c(Cl)c1 [Compound 16, 2-(3,4-dichlorophenyl)-1-ethyl-6-methyl-4-oxo-5-[3-(trifluoromethoxy)phenyl]pyridine-3-carboxylic acid] | 4 (4=61-80%) | 5 (5=81-100%) | 4 (4=61-80%) | 1 (1=0-20%) | 5 (5=81-100%) | 4 (4=61-80%) | 1 (1=0-20%) | 1 (1=0-20%) | 3 (3=41-60%) | 1 (1=0-20%) | 4 (4=61-80%) | 2 (2=21-40%)
CCn1c(C)c(-c2ccnc(F)c2)c(=O)c(C(=O)O)c1-c1ccc(Cl)c(Cl)c1 [Compound 17, 2-(3,4-dichlorophenyl)-1-ethyl-5-(2-fluoro-4-pyridyl)-6-methyl-4-oxo-pyridine-3-carboxylic acid] | 4 (4=61-80%) | 4 (4=61-80%) | 4 (4=61-80%) | 4 (4=61-80%) | 4 (4=61-80%) | 3 (3=41-60%) | 1 (1=0-20%) | 3 (3=41-60%) | 5 (5=81-100%) | 3 (3=41-60%) | 3 (3=41-60%) | 1 (1=0-20%)
CCn1c(C)c(-c2ccc(OC)cc2)c(=O)c(C(=O)O)c1-c1ccc(Cl)c(Cl)c1 [Compound 18, 2-(3,4-dichlorophenyl)-1-ethyl-5-(4-methoxyphenyl)-6-methyl-4-oxo-pyridine-3-carboxylic acid] | 5 (5=81-100%) | 4 (4=61-80%) | 5 (5=81-100%) | 2 (2=21-40%) | 5 (5=81-100%) | 5 (5=81-100%) | 1 (1=0-20%) | 2 (2=21-40%) | 4 (4=61-80%) | 1 (1=0-20%) | 2 (2=21-40%) | 1 (1=0-20%)
CCn1c(C)c(-c2cccnc2)c(=O)c(C(=O)O)c1-c1ccc(Cl)c(Cl)c1 [Compound 19, 2-(3,4-dichlorophenyl)-1-ethyl-6-methyl-4-oxo-5-(3-pyridyl)pyridine-3-carboxylic acid] | 4 (4=61-80%) | 5 (5=81-100%) | 4 (4=61-80%) | 3 (3=41-60%) | 4 (4=61-80%) | 5 (5=81-100%) | 1 (1=0-20%) | 1 (1=0-20%) | 1 (1=0-20%) | 1 (1=0-20%) | 1 (1=0-20%) | 1 (1=0-20%)
